Reference: paper PMC9150076 (Journal of Medicinal Chemistry, 2022)
Like-named read-outs stand apart in the source and are kept apart here.

Tests used:
[1] = tested on: Bcl-2; experiment: qRT-PCR gene expression, Bcl-2; assay type: cell-based; conditions: 5× IC50, 24 h, compared to untreated cells
Description: (§1) To elucidate the previous data on apoptosis and migration and the mechanism of interaction, further studies focused on several potential cellular determinants and effectors of drug activities, such as the anti-apoptotic factor Bcl-2, the key matrix metalloproteinase 9 (MMP9), which promotes cell migration, and the main gemcitabine transporter, the human equilibrative nucleoside transporter 1 (hENT1).
(§2) Real-time quantitative reverse transcription PCR (qRT-PCR) was performed to evaluate the gene expression of MMP9, BCL-2, BCL-x, and hENT1, using β-actin, and GAPDH as housekeeping genes. […] Total RNA was extracted using the TRIzol Reagent (15596–026, ThermoFisher Scientific, Waltham, MA) according to the manufacturer’s protocol. One microgram of RNA was reverse transcribed using first-strand cDNA synthesis (First Strand cDNA Synthesis Kit; ThermoFisher #K1612) on a Bio-Rad machine C100 Thermal Cycler. Real-time qPCR quantification was performed using specific TaqMan detection probes and primers (TaqMan Universal PCR Master Mix #4304437; Thermo Fisher Scientific, USA) with the ABIPRISM-7500 instrument (Applied Biosystems, Foster City, CA), as described previously.[60] Data obtained were analyzed according to the 2^–ΔΔCt method.

[2] = tested on: immortalized ductal normal cells HPNE; experiment: Growth inhibition, SRB assay, HPNE normal cells; assay type: cell-based, human; conditions: 72 h
[3] = tested on: active caspase-3 in PDAC2 cells; experiment: Active caspase-3 immunoassay, PDAC2; assay type: cell-based, human; conditions: untreated 0.35
[4] = Water solubility; assay type: physicochemical; conditions: distilled water, room temperature
Description: 6.9 software. Chromatographic separation was obtained using a Kinetex C18 column (150 × 4.6 mm) with a 5 μm particle size and gradient elution with a binary solution; (eluent A: ACN, eluent B: water, both eluents were acidified with formic acid 0.1% v/v). The analysis started with 5% of A (from t = 0 to t = 1 min), then A was increased to 95% (from t = 1 to t = 10 min), then kept at 95% (from t = 10 to t = 19 min), and finally returned to 5% of eluent A in 1.0 min. The flow rate was 0.6 mL/min, and injection volumes were 10 μL. The instrument operated in positive mode, and parameters were detector 1450 V, drying gas pressure 35.0 psi, desolvation temperature 300.0 °C, nebulizing gas 45.0 psi, needle 5550 V and shield 350 V. Nitrogen was used as a nebulizer gas and drying gas. Collision-induced dissociation was performed using argon as the collision gas at a pressure of 1.8 mTorr in the collision cell. The transitions as well as the capillary voltage and the collision energy used are appropriated for each tested compound. Quantification of the single compound was made by comparison with appropriate calibration curves realized with standard solutions in methanol. LC analyses of PAMPA, metabolic stability, and stability tests (in MeOH, PBS, human plasma) were performed by UV/LC–MS with an Agilent 1100 LC/MSD VL system ((G1946C) Agilent Technologies, Palo Alto, CA) using a Phenomenex Kinetex C18–100 Å (150 × 4.6 mm, 5 μm particle size) at room temperature. Analyses were carried out with the same chromatographic conditions reported above.
Each sample was mixed at room temperature in a shaker water bath for 24 h.[62] The resulting suspension was filtered through a 0.45 μm nylon filter (Acrodisc), and the solubilized compound was quantified in triplicate using the LC–MS/MS method reported above, by comparison with the appropriate calibration curve that was obtained from samples of the compound dissolved in methanol at different concentrations.

[5] = biological target: T1, hCB1 (Homo sapiens, UniProt P21554); experiment: CB1 binding assay, [3H]CP55,940 displacement
T1 construct: expressed in transfected cells

[6] = tested on: PDAC2 primary cell culture; experiment: Growth inhibition, SRB assay, PDAC2; assay type: cell-based; conditions: Homo sapiens, PDAC-2, PDAC2, 72 h, read-out: IC50 antiproliferative activity
[7] = biological target: ABHD12 (Mus musculus, UniProt Q99LR1)
[8] = tested on: hENT1; experiment: qRT-PCR gene expression, hENT1; assay type: cell-based; conditions: 5× IC50, 24 h, compared to untreated cells
Description: as §1, §2

[9] = tested on: PDAC3 cells; experiment: Wound-healing/migration assay, PDAC3; assay type: cell-based, human; conditions: PDAC3, 20 h, drug at 5× IC50; control 59 ± 8%
[10] = tested on: PDAC2 cells; experiment: Wound-healing/migration assay, PDAC2; assay type: cell-based, human; conditions: PDAC2, drug at 5× IC50; control 70 ± 3%

T1 sequence (P21554 whole entry): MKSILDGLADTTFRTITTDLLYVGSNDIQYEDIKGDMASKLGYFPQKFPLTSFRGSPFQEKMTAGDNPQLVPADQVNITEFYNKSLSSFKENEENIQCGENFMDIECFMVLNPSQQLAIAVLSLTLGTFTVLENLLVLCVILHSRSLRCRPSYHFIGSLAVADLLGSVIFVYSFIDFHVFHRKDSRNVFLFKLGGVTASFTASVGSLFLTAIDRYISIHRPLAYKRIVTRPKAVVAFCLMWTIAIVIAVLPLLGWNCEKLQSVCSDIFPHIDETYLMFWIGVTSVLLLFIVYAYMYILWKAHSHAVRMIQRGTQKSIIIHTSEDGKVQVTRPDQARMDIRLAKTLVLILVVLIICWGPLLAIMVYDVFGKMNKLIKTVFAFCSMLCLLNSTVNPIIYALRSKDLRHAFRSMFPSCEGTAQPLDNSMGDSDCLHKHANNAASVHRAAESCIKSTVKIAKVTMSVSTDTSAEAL
ABHD12, sequence (Q99LR1 whole entry): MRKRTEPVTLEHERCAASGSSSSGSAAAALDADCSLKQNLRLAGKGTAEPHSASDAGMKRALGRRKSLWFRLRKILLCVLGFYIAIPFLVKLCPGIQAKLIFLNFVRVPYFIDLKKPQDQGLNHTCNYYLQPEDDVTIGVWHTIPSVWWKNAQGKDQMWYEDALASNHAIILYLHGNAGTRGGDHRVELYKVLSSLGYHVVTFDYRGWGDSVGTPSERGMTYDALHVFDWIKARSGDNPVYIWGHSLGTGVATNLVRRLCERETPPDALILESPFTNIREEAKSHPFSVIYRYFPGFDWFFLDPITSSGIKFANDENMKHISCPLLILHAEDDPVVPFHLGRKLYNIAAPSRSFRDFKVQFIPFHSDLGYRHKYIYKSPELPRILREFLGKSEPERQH

For O=C(c1cc(O)ccc1F)N1CCC(Cc2cccc(Oc3cc(C(F)(F)F)ccn3)c2)CC1 [Compound 13, (2-Fluoro-5-hydroxyphenyl)(4-(3-((4-(trifluoromethyl)pyridin-2-yl)oxy)benzyl)piperidin-1-yl)methanone], the Bcl-2 gene expression [1] was “slight reduction”, the IC50 antiproliferative activity [2] was “not sensitive” and the IC50 ([2]; Homo sapiens, read-out: IC50 antiproliferative activity) was greater than 20 µM. The “levels of active caspase-3” value [3] was 1.12 ng/mL, the solubility at 24 h ([4]; read-out: water solubility) was less than 1 ng/mL and the solubility at 24 h ([4]; read-out: water solubility (logS)) was less than 2.11 nM. For the same compound, the IC50 [5] was greater than 10 µM, the IC50 [6] was 12.6 µM and the “TAMRA-FP labelling of ABHD12 band (ABPP)” value [7] was “without affecting”. The hENT1 gene expression [8] was “increase”, the scratch area closed [9] was 38 ± 6% and the gap closure [10] was 61 ± 3%.
